Reference: US10603298B2, “Succinate dehydrogenase inhibitors (SDHi's)” (Medical Research Council, priority 2014, dated 2020)

Key:
[1] = tested on: mouse heart IR injury (myocardial infarction); assay: In vivo mouse cardiac IR injury (LAD ligation), infarct size by triphenyltetrazolium chloride staining; settings: i.v. infusion 4 mg/kg/min prior to and throughout ischaemia
Method: For the in vivo heart IR model an open-chest, in situ heart model was used^31,32. Male mice (8-10 weeks; Charles River Laboratories, UK) were anaesthetised with sodium pentobarbital (70 mg/kg intraperitoneally (i.p.)), intubated endotracheally and ventilated with 3 cm H2O positive-end expiratory pressure. Adequacy of anaesthesia was monitored using corneal and withdrawal reflexes. Ventilation frequency was kept at 110 breaths per minute with tidal volume between 125-150 μL. A thoracotomy was performed and the heart exposed by stripping the pericardium. A prominent branch of the left anterior descending coronary artery (LAD) was surrounded by a 7-0 Prolene suture that was then passed through a small plastic tube. Ischaemia was induced by tightening the tubing against the heart surface. To assess metabolites during IR in vivo, mice were divided into three groups: 30 min ischaemia, 30 min ischaemia plus 5 min reperfusion and 30 min sham-operation in which the suture was placed but the LAD was not occluded. At the end of each protocol tissue was removed from the at risk and peripheral areas of the heart, selected visually by comparing white versus red tissue, and snap-frozen in liquid nitrogen. […] Infarct size was assessed after 30 min of ischaemia followed by 120 min reperfusion using 2% triphenyltetrazolium chloride staining and is expressed as a percentage of the risk zone^33. […]

[2] = tested on: adult primary rat cardiomyocytes; assay: Mitochondrial membrane potential (TMRM) in primary cardiomyocytes during in situ IR; type: cell-based; settings: 4 mM in ischaemic buffer
Method: FIG. 15: Tracking mitochondrial membrane potential in primary cardiomyocytes during in situ IR. Primary rat cardiomyocytes were subjected to 40 min ischaemia and reoxygenation and mitochondrial membrane potential was tracked throughout the experiment by measurement of tetramethylrhoadmine (TMRM) fluorescence. […] Average traces from at least three replicate experiments are shown. (a) TMRM signal throughout the entire experiment.
Male Sprague-Dawley rats (300-370 g) were terminally anaesthetised via IP injections of 200 mg/kg sodium pentobarbitone and 330 U/kg heparin. Hearts were excised and retrograde perfused on a Langendorff-perfusion system with 13 mL/min oxygenated KH buffer at 37° C. […]
Cells were imaged within 36 hours of plating. […] Simulated ischaemia was achieved by replacing the buffer with a pre-gassed, hypoxic recording buffer simulating ischaemia (as above but lacking glucose and containing 10 mM sodium lactate, 14.8 mM KCl; pH 6.4) and by covering the heated stage with a transparent, gas-impermeant lid, forming a small chamber into which argon was forced to maintain hypoxia. pO2 was routinely measured as <2.0 mm Hg during simulated ischaemia. […]
Mitochondrial membrane potential was measured using tetramethylrhodamine, methyl ester (TMRM, Life Technologies) in dequench mode. […] TMRM fluorescence was excited at 543 nm and emission was collected using a LP 560 filter.

COC(=O)CC(=O)OC [dimethyl malonate]
protection against cardiac IR injury (infarct size) [1]: protective | rate of mitochondrial polarisation upon reperfusion [2]: diminished the rate of mitochondrial polarisation upon reperfusion
